Measurements from patent US20070142317A1, “Topical composition for treatment of skin disorders” (QLT USA, Inc., priority 2003, published 2007).
Where “and” joins values, the source holds several entries; their conditions need not be identical. Equal entries are not always repeated. Where two headings read alike, the source gives them in different places.

How the values were obtained:
[1] = for times safer than the oncology dose: 40 grams each day, 7% penetration
Text: (§1) Systemic absorption is a concern, because of the potential for serious adverse events, such as lymphopenia and renal toxicity. At oncology doses, these adverse reactions are usually minimized, but the therapeutic index is narrow. Another factor that plays a role in the safety of the formulation is the amount of product administered each day. Approximately 4 grams, 12 grams, and 40 grams of a topical formulation are estimated to cover 10%, 30%, and 100% of the body surface area.
as §1
as §1, with “Calculations of safety margins have been performed, based upon this assumption and the known toxicity profile of F-Ara-A when administered IV for oncology indications. Systemic” for “Systemic”
as §1

[2] = tested on: monocytes; details: read-out: concentration that causes 50% inhibition of monocytes; cited from earlier work
[3] = tested on: chronic lymphocytic leukemia (CLL); details: 25 mg/m^2 every day for 5 days; cited from earlier work
[4] = Calculated concentration in the skin assuming 7% penetration
[5] = aqueous solution, cited from earlier work
[6] = intravenous; cited from earlier work
[7] = tested on: lymphocytes; details: same concentration of dCF, absence of dAdo, after 4 days of exposure; cited from earlier work
[8] = tested on: hairy cell leukemia (HCL); details: cited from earlier work
[9] = tested on: U-937 cells; assay: Cytokine secretion by ELISA (Example 31); assay type: cell-based; details: drug 1 μM; for Cytokine Secretion IL-6 pg/ml Mean of 3 Replicates: LPS-activated cells
Protocol: In a search for a topical agent that can locally deplete levels of T-cells in the skin, apoptotic compounds were evaluated for their mechanisms of action. The ability that […] induce apoptosis by the same mechanisms was examined by cytokine secretion. […] Caspase-3 and cytokine (IL-2, IL-6, TNF, and IFN-γ) levels were determined and compared to controls at 23 and 46 hours. FdA was incorporated to evaluate the effect of the halogen group and Ara-C for its overlapping mechanisms of action. […] At the end of the treatment period, the cells were harvested and Caspase-3 induction was determined using a flow-cytometry-based method to quantify the percentage of cells that induced Caspase-3. The level of apoptosis is expressed as “% FITC shift”. Cytokine secretion (IL-2, IL-6, TNF, and IFN-γ) was measured at the same time by ELISA and is expressed in pg/mL. […]

[10] = tested on: Jurkat cells; assay: Cytokine secretion by ELISA (Example 31); assay type: cell-based; details: drug 1 μM; for Cytokine Secretion IL-2 pg/ml Mean of 3 Replicates: PHA-activated cells
Protocol: In a search for a topical agent that can locally deplete levels of T-cells in the skin, apoptotic compounds were evaluated for their mechanisms of action. The ability that […] induce apoptosis by the same mechanisms was examined by cytokine secretion. […] At the end of the treatment period, the cells were harvested and Caspase-3 induction was determined using a flow-cytometry-based method to quantify the percentage of cells that induced Caspase-3. The level of apoptosis is expressed as “% FITC shift”. Cytokine secretion (IL-2, IL-6, TNF, and IFN-γ) was measured at the same time by ELISA and is expressed in pg/mL.

[11] = tested on: U-937 cells; details: Niiitsu et al 2000; cited from earlier work
[12] = molecular target: dGK (Homo sapiens, UniProt Q16854); details: read-out: Km for dGK; cited from earlier work
Sequence of dGK (Q16854 40-277, species assumed): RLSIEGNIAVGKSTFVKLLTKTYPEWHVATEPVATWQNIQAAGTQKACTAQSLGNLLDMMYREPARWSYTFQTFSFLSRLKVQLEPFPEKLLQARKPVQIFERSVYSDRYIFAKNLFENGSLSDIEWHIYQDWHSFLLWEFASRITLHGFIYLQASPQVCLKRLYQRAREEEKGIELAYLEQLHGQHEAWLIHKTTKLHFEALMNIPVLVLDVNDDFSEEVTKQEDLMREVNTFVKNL

SMILES: Nc1nc(F)nc2c1ncn2[C@@H]1O[C@H](CO)C(O)C1O (stereo partly drawn) [F-Ara-A, 2-fluoroadenine-9β-D-Arabinofuranoside]
- times safer than the oncology dose ([1]; topical 0.0002%): 8036
- safety margin (times safer than the oncology dose) ([1]; topical 1.0% (10 mg/g), 10% BSA (4 grams per day), 7% systemic absorption): 16
- systemic exposure per day ([1]; topical 1.0% (10 mg/g), 10% BSA (4 grams), 7% systemic absorption): 2.8 mg
- safety margin (times safer than the oncology dose) ([1]; topical 1.0% (10 mg/g), 30% BSA (12 grams per day), 7% systemic absorption): 5.4
- systemic exposure per day ([1]; topical 1.0% (10 mg/g), 30% BSA (12 grams), 7% systemic absorption): 8.4 mg
- safety margin (times safer than the oncology dose) ([1]; topical 1.0% (10 mg/g), 100% BSA (40 grams per day), 7% systemic absorption): 1.6
- systemic exposure per day ([1]; topical 1.0% (10 mg/g), 100% BSA (40 grams), 7% systemic absorption): 28 mg
- IC50 [2]: 500 nM
- time to complete remissions, on average [3]: 3 months
- concentration achieved in the skin assuming 7% penetration ([4]; topical 0.0002% (0.002 mg/g)): approximately 0.5 μM

SMILES: OC[C@H]1O[C@@H](n2cnc3c2NC=NC[C@H]3O)C[C@@H]1O [dCF, (R)-3-(2-Deoxy-β-D-erythro-pentofuranosyl)-3,6,7,8-tetrahydroimidazo[4,5-d][1,3]diazepin-8-ol]
- safety margin (times safer than the oncology dose) [1]: 1.8
- t50 ([5]; pH 1, 25° C.): 5.6 min
- t50 ([5]; pH 5.0, 25° C.): about 3.5 days
- t50 ([5]; pH 7.5, 25° C.): approximately 70 days
- t50 ([5]; pH 12.6, 25° C.): approximately 45 days
- drug recovered in the urine [6]: Approximately 96%
- growth inhibition [7]: 0-10%
- time to complete remissions, on average ([8]; 4 mg/m^2 every 14 days): 6 months
- Concentration in the skin assuming 7% penetration ([4]; topical concentration 0.00001%): 30 nM
- Concentration in the skin assuming 7% penetration ([4]; topical concentration 0.00005%): 130 nM
- Concentration in the skin assuming 7% penetration ([4]; topical concentration 0.0001%): 260 nM
- Concentration in the skin assuming 7% penetration ([4]; topical concentration 0.001%): 2610 nM
- Concentration in the skin assuming 7% penetration ([4]; topical concentration 0.01%): 26090 nM
- Concentration in the skin assuming 7% penetration ([4]; topical concentration 0.1%): 260930 nM

SMILES: Nc1nc(Cl)nc2c1ncn2[C@H]1C[C@H](O)[C@@H](CO)O1 [CdA, 2-chloro-2′-deoxyadenosine]
- Cytokine Secretion IL-6 pg/ml Mean of 3 Replicates ([9]; 23 hr): 7 pg/mL
- effect on suppressing the production of IL-6 ([9]; 46 hours): little effect
- Cytokine Secretion IL-6 pg/ml Mean of 3 Replicates ([9]; 46 hr): 8 pg/mL and 7 pg/mL
- Cytokine Secretion IL-2 pg/ml Mean of 3 Replicates ([10]; 23 hr): 51 pg/mL
- Cytokine Secretion IL-2 pg/ml Mean of 3 Replicates ([10]; 46 hr): 105 pg/mL
- IL-2 concentration ([10]; Jurkat cells activated by PHA, 46 hours): 105 pg/mL
- safety factor ([1]; 0.00005%, 30% of body surface area (10.8 grams/day), 7% systemic absorption): 17,142
- times safer than the oncology dose ([1]; topical 0.00001%): 23000
- safety margin (times safer than the oncology dose) ([1]; topical 0.1% (1.0 mg/g), 10% BSA (4 grams per day), 7% systemic absorption): 23
- systemic exposure per day ([1]; topical 0.1% (1.0 mg/g), 10% BSA (4 grams), 7% systemic absorption): 0.28 mg
- safety margin (times safer than the oncology dose) ([1]; topical 0.1% (1.0 mg/g), 30% BSA (12 grams per day), 7% systemic absorption): 7.7
- systemic exposure per day ([1]; topical 0.1% (1.0 mg/g), 30% BSA (12 grams), 7% systemic absorption): 0.84 mg
- safety margin (times safer than the oncology dose) ([1]; topical 0.1% (1.0 mg/g), 100% BSA (40 grams per day), 7% systemic absorption): 2.3
- systemic exposure per day ([1]; topical 0.1% (1.0 mg/g), 100% BSA (40 grams), 7% systemic absorption): 2.8 mg
- concentration toxic to U-937 cells on its own [11]: 0.1 µM
- time to responses and complete remissions ([8]; 3.6 mg/m^2 every day for 7 days): ≤ 1 week
- Km [12]: 80 µM
- concentration achieved in the skin assuming 7% penetration ([4]; topical 0.00001% (0.0001 mg/g)): approximately 25 nM
- Concentration in the skin assuming 7% penetration ([4]; topical concentration 0.00001%): 20 nM
- Concentration in the skin assuming 7% penetration ([4]; topical concentration 0.00005%): 120 nM
- Concentration in the skin assuming 7% penetration ([4]; topical concentration 0.0001%): 250 nM
- Concentration in the skin assuming 7% penetration ([4]; topical concentration 0.001%): 2450 nM
- Concentration in the skin assuming 7% penetration ([4]; topical concentration 0.01%): 24500 nM
- Concentration in the skin assuming 7% penetration ([4]; topical concentration 0.1%): 245010 nM
